Where two headings read alike, the source gives them in different places.
Columns and labels:
[1] = system: T47D (PI3Kα H1047R mutant) cells; assay: CellTiter-Glo 2.0 luminescent cell viability assay, 72 hours, T47D cells; assay type: cell-based; conditions: T47D (PI3Kα H1047R mutant) cells, CellTiter-Glo, approximately 72 hours, read-out: T47D (H1047R mutant) Viability IC50
Procedure, shortened: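 Viability was measured by CellTiter-Glo 2.0 luminescence after approximately 72 h of compound exposure at 37° C. Plating was 1000 cells per well the day before dosing, with ten 1:4 dilutions from a 10 µM top concentration. Values as percent of vehicle were fitted by variable-slope log(inhibitor) regression to give IC50.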

[2] = system: SKBR3 (PI3Kα wild type) cells; assay: CellTiter-Glo 2.0 luminescent cell viability assay, 72 hours, SKBR3 cells; assay type: cell-based; conditions: Homo sapiens, SK-BR-3, 72 h, SKBR3 (PI3Kα wild type) cells, CellTiter-Glo, approximately 72 hours; read-out: SKBR3 (WT) Viability IC50
Procedure, shortened: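 Viability measured via CTG luminescence following roughly 72 hours of compound exposure at 37° C. Dosing used a 10 um starting concentration diluted 1:4 over 10 points; percent-of-vehicle data fitted with a variable-slope four-parameter model for IC50.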

SMILES	IC50 ([1]; Homo sapiens, T47D, 72 h) [µM]	IC50 [2] [µM]	IC50 [1] [µM]
Cc1cc([C@@H](C)Nc2ccccc2C(=O)O)c2nc(N3C4CCC3CC(F)(F)C4)c(C)c(=O)n2c1 [Example 11-189, 2-(((1R)-1-(2-(3,3-difluoro-8-azabicyclo[3.2.1]octan-8-yl)-3,7-dimethyl-4-oxo-4H-pyrido[1,2-a]pyrimidin-9-yl)ethyl)amino)benzoic acid]	0.261	> 10	
Cc1cc([C@@H](C)Nc2ccccc2C(=O)O)c2nc(N3CCC(C(F)(F)F)CC3)c(C#N)c(=O)n2c1 [Example 11-70, (R)-2-((1-(3-cyano-7-methyl-4-oxo-2-(4-(trifluoromethyl)piperidin-1-yl)-4H-pyrido[1,2-a]pyrimidin-9-yl)ethyl)amino)benzoic acid]	0.268	> 10	
Cc1cc([C@@H](C)Nc2ccccc2C(=O)O)c2nc(N3Cc4cccc(F)c4C3)c(C)c(=O)n2c1 [Example 11-38, (R)-2-((1-(2-(4-fluoroisoindolin-2-yl)-3,7-dimethyl-4-oxo-4H-pyrido[1,2-a]pyrimidin-9-yl)ethyl)amino)benzoic acid]	0.194	> 10	
Cc1cc([C@@H](C)Nc2ccccc2C(=O)O)c2nc(N3CCC4(CCOC4)CC3)c(C)c(=O)n2c1 [Example 10-130, (R)-2-((1-(3,7-dimethyl-4-oxo-2-(2-oxa-8-azaspiro[4.5]decan-8-yl)-4H-pyrido[1,2-a]pyrimidin-9-yl)ethyl)amino)benzoic acid]		> 10	0.0469
CO[C@@H]1CCN(c2nc3c([C@@H](C)Nc4ccccc4C(=O)O)cc(C)cn3c(=O)c2C)CC1(F)F [Example 10-28, 2-(((R)-1-(2-((R)-3,3-difluoro-4-methoxypiperidin-1-yl)-3,7-dimethyl-4-oxo-4H-pyrido[1,2-a]pyrimidin-9-yl)ethyl)amino)benzoic acid]	0.053	> 10	
CCc1cc([C@@H](C)Nc2ccccc2C(=O)O)c2nc(N3CCC(F)(F)CC3)c(C#N)c(=O)n2c1 [Example 10-46, (R)-2-((1-(3-cyano-2-(4,4-difluoropiperidin-1-yl)-7-ethyl-4-oxo-4H-pyrido[1,2-a]pyrimidin-9-yl)ethyl)amino)benzoic acid]	0.065	> 10	
Cc1cc([C@@H](C)Nc2ccc(F)c(F)c2C(=O)O)c2nc(N3CCC(F)(F)CC3)c(C#N)c(=O)n2c1 [Example 11-88, (R)-6-((1-(3-cyano-2-(4,4-difluoropiperidin-1-yl)-7-methyl-4-oxo-4H-pyrido[1,2-a]pyrimidin-9-yl)ethyl)amino)-2,3-difluorobenzoic acid]	1.65	> 10	
Cc1cc([C@@H](C)Nc2ccccc2C(=O)O)c2nc(N3CCN(Cc4cccnc4)CC3C)c(C)c(=O)n2c1 (stereo partly drawn) [Example 10-132, 2-(((1R)-1-(3,7-dimethyl-2-(2-methyl-4-(pyridin-3-ylmethyl)piperazin-1-yl)-4-oxo-4H-pyrido[1,2-a]pyrimidin-9-yl)ethyl)amino)benzoic acid]	0.051	> 10	
C[C@@H](Nc1ccc(Cl)nc1C(=O)O)c1cc(Cl)cn2c(=O)c(C#N)c(N3CCC(F)(F)CC3)nc12 [Example 11-50, (R)-6-chloro-3-((1-(7-chloro-3-cyano-2-(4,4-difluoropiperidin-1-yl)-4-oxo-4H-pyrido[1,2-a]pyrimidin-9-yl)ethyl)amino)picolinic acid]	0.217	> 10	
Cc1ccc(C#N)c(N2CCN(c3nc4c([C@@H](C)Nc5ccccc5C(=O)O)cc(C)cn4c(=O)c3C)[C@H](C)C2)c1 [Example 11-74, 2-(((R)-1-(2-((R)-4-(2-cyano-5-methylphenyl)-2-methylpiperazin-1-yl)-3,7-dimethyl-4-oxo-4H-pyrido[1,2-a]pyrimidin-9-yl)ethyl)amino)benzoic acid]	1.98	> 10	
Cc1cc([C@@H](C)Nc2ccccc2C(=O)O)c2nc(N3CCC4(CCC(O)C4)CC3)c(C)c(=O)n2c1 (stereo partly drawn) [Example 10-143, 2-(((1R)-1-(2-(2-hydroxy-8-azaspiro[4.5]decan-8-yl)-3,7-dimethyl-4-oxo-4H-pyrido[1,2-a]pyrimidin-9-yl)ethyl)amino)benzoic acid]	0.0831	> 10	

Now from value to compound:

IC50 ([1]; Homo sapiens, T47D, 72 h) [µM]	IC50 [2] [µM]	IC50 [1] [µM]	SMILES
> 10	> 10		Cc1cc(C(C)Nc2ccccc2)c2nc(N3CCOCC3)cc(=O)n2c1 (stereo not shown) [Example 11-421, 7-methyl-2-morpholino-9-(1-(phenylamino)ethyl)-4H-pyrido[1,2-a]pyrimidin-4-one]
0.123	> 10		Cc1cc([C@@H](C)Nc2ccccc2C(=O)O)c2nc(N3CCN(c4cn(C)nc4C#N)CC3)c(C)c(=O)n2c1 [Example 11-185, (R)-2-((1-(2-(4-(3-cyano-1-methyl-1H-pyrazol-4-yl)piperazin-1-yl)-3,7-dimethyl-4-oxo-4H-pyrido[1,2-a]pyrimidin-9-yl)ethyl)amino)benzoic acid]
0.9	> 10		Cc1cc([C@@H](C)Nc2ccccc2C(=O)O)c2nc(N3C[C@H]4C[C@@H]3CN4c3ccc(C#N)cc3)c(C#N)c(=O)n2c1 [Example 11-174, 2-(((R)-1-(3-cyano-2-((1R,4R)-5-(4-cyanophenyl)-2,5-diazabicyclo[2.2.1]heptan-2-yl)-7-methyl-4-oxo-4H-pyrido[1,2-a]pyrimidin-9-yl)ethyl)amino)benzoic acid]
0.139	> 10		Cc1cc([C@@H](C)Nc2ccc(Cl)nc2C(=O)O)c2nc(N3CCC(F)(F)CC3)c(C)c(=O)n2c1 [Example 11-298, (R)-6-chloro-3-((1-(2-(4,4-difluoropiperidin-1-yl)-3,7-dimethyl-4-oxo-4H-pyrido[1,2-a]pyrimidin-9-yl)ethyl)amino)picolinic acid]
0.257	> 10		Cc1cc([C@@H](C)Nc2ccccc2C(=O)O)c2nc(N3CCC4(CC3)C(F)(F)C4(F)F)c(C)c(=O)n2c1 [Example 11-213, (R)-2-((1-(3,7-dimethyl-4-oxo-2-(1,1,2,2-tetrafluoro-6-azaspiro[2.5]octan-6-yl)-4H-pyrido[1,2-a]pyrimidin-9-yl)ethyl)amino)benzoic acid]
0.232	> 10		Cc1cc([C@@H](C)Nc2ccccc2C(=O)O)c2nc(NCC3CC(F)(F)C3)c(C#N)c(=O)n2c1 [Example 11-198, (R)-2-((1-(3-cyano-2-(((3,3-difluorocyclobutyl)methyl)amino)-7-methyl-4-oxo-4H-pyrido[1,2-a]pyrimidin-9-yl)ethyl)amino)benzoic acid]
0.257	> 10		Cc1cc([C@@H](C)Nc2ccccc2C(=O)O)c2nc(N3CC(F)C3)c(C)c(=O)n2c1 [Example 11-114, (R)-2-((1-(2-(3-fluoroazetidin-1-yl)-3,7-dimethyl-4-oxo-4H-pyrido[1,2-a]pyrimidin-9-yl)ethyl)amino)benzoic acid]
> 10	> 10		Cc1cc([C@@H](C)Nc2ccccc2C(=O)O)c2nc(N3CCn4c(nnc4C(F)(F)F)C3)c(C)c(=O)n2c1 [Example 11-217, (R)-2-((1-(3,7-dimethyl-4-oxo-2-(3-(trifluoromethyl)-5,6-dihydro-[1,2,4]triazolo[4,3-a]pyrazin-7(8H)-yl)-4H-pyrido[1,2-a]pyrimidin-9-yl)ethyl)amino)benzoic acid]
> 10	> 10		Cc1cc([C@@H](C)Nc2ccncc2C(=O)O)c2nc(N3CCC(F)(F)CC3)c(C#N)c(=O)n2c1 [Example 11-142, (R)-4-((1-(3-cyano-2-(4,4-difluoropiperidin-1-yl)-7-methyl-4-oxo-4H-pyrido[1,2-a]pyrimidin-9-yl)ethyl)amino)nicotinic acid]
0.17	> 10		Cc1cc([C@@H](C)Nc2ccccc2C(=O)O)c2nc(N3C[C@H]4CC[C@@H]3C4)c(C#N)c(=O)n2c1 [Example 11-294, 2-(((R)-1-(2-((1R,4S)-2-azabicyclo[2.2.1]heptan-2-yl)-3-cyano-7-methyl-4-oxo-4H-pyrido[1,2-a]pyrimidin-9-yl)ethyl)amino)benzoic acid]
> 10	> 10		Cc1cc(C(C)Nc2cccc(C(=O)O)c2)c2nc(N3CCCCC3)cc(=O)n2c1 (stereo not shown) [Example 11-389, 3-((1-(7-methyl-4-oxo-2-(piperidin-1-yl)-4H-pyrido[1,2-a]pyrimidin-9-yl)ethyl)amino)benzoic acid]
> 10	> 10		Cc1cc(CNc2ccccc2C(=O)O)c2nc(N3CCCCC3)cc(=O)n2c1 [Example 11-412]
0.469	> 10		Cc1cc([C@@H](C)Nc2ccccc2C(=O)O)c2nc(N3CCC4(CC3)COC4)c(C#N)c(=O)n2c1 [Example 11-208, (R)-2-((1-(3-cyano-7-methyl-4-oxo-2-(2-oxa-7-azaspiro[3.5]nonan-7-yl)-4H-pyrido[1,2-a]pyrimidin-9-yl)ethyl)amino)benzoic acid]
3.91	> 10		CC(=O)N1CC=C(c2cc(=O)n3cc(C)cc([C@@H](C)Nc4ccccc4C(=O)O)c3n2)CC1 [Example 11-379, (R)-2-((1-(2-(1-acetyl-1,2,3,6-tetrahydropyridin-4-yl)-7-methyl-4-oxo-4H-pyrido[1,2-a]pyrimidin-9-yl)ethyl)amino)benzoic acid]
1.04	> 10		Cc1cc([C@@H](C)Nc2ccc(Cl)nc2C(=O)O)c2nc(N3Cc4ccncc4C3)c(C#N)c(=O)n2c1 [Example 11-147, (R)-6-chloro-3-((1-(3-cyano-2-(1,3-dihydro-2H-pyrrolo[3,4-c]pyridin-2-yl)-7-methyl-4-oxo-4H-pyrido[1,2-a]pyrimidin-9-yl)ethyl)amino)picolinic acid]

From patent US20260078120A1, “SUBSTITUTED PYRIDOPYRIMIDINONES” (MIRATI THERAPEUTICS, INC., priority 2022, published 2026)
